Test results: ChEMBL document CHEMBL1201862, “PubChem BioAssay data set” (2004)
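Following 48 hours of exposure in 96-well plates, responses at five concentrations were used to interpolate endpoints linearly. Abbreviation: GI50, concentration required for 50% inhibition of growth.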 Active and inactive are the calls of the source. Rule as the data show it: active = GI50 up to about 1.1 µM and inactive = higher.

Tests used:
Experiment in all cases: growth of human tumour cells (NCI), 48 h
UO-31 = system: UO-31
MOLT-4 = system: MOLT-4
CCRF-CEM = system: CCRF-CEM
A498 = system: A498
KM12 = system: KM12
NCI-H522 = system: NCI-H522
M14 = system: M14
PC-3 = system: PC-3
OVCAR-8 = system: OVCAR-8
NCI-H460 = system: NCI-H460
EKVX = system: EKVX
K562 = system: K562
HCT-15 = system: HCT-15
SF-539 = system: SF-539
SNB-19 = system: SNB-19
COLO 205 = system: COLO 205
HT-29 = system: HT-29
SF-268 = system: SF-268
CAKI-1 = system: CAKI-1
MDA-N = system: MDA-N
SK-OV-3 = system: SK-OV-3
SF-295 = system: SF-295
DU-145 = system: DU-145
MDA-MB-231 = system: MDA-MB-231
786-0 = system: 786-0
HCT-116 = system: HCT-116
UACC-257 = system: UACC-257
HOP-62 = system: HOP-62
IGROV-1 = system: IGROV-1
MDA-MB-435 = system: MDA-MB-435
SW-620 = system: SW-620
A549 = system: A549
SK-MEL-5 = system: SK-MEL-5
ACHN = system: ACHN
LOX IMVI = system: LOX IMVI
NCI-H226 = system: NCI-H226
TK-10 = system: TK-10
HL-60 = system: HL-60
OVCAR-4 = system: OVCAR-4
NCI-H23 = system: NCI-H23
BT-549 = system: BT-549
SN12C = system: SN12C
SR = system: SR
Hs-578T = system: Hs-578T
RXF 393 = system: RXF 393
SK-MEL-28 = system: SK-MEL-28
RPMI-8226 = system: RPMI-8226
SK-MEL-2 = system: SK-MEL-2
OVCAR-3 = system: OVCAR-3
HOP-92 = system: HOP-92
OVCAR-5 = system: OVCAR-5
NCI/ADR-RES = system: NCI/ADR-RES
Malme-3M = system: Malme-3M
T47D = system: T47D
UACC-62 = system: UACC-62
U-251 = system: U-251
SNB-75 = system: SNB-75
MCF7 = system: MCF7
HCC 2998 = system: HCC 2998

## O=C1CCCCC(=O)Nc2ccccc2N1
UO-31
  GI50: > 100 µM (inactive)
MOLT-4
  GI50: > 100 µM (inactive)
CCRF-CEM
  GI50: > 100 µM (inactive)
A498
  GI50: > 100 µM (inactive)
KM12
  GI50: > 100 µM (inactive)
NCI-H522
  GI50: > 100 µM (inactive)
M14
  GI50: > 100 µM (inactive)
PC-3
  GI50: > 100 µM (inactive)
OVCAR-8
  GI50: > 100 µM (inactive)
NCI-H460
  GI50: > 100 µM (inactive)
EKVX
  GI50: > 100 µM (inactive)
K562
  GI50: > 100 µM (inactive)
HCT-15
  GI50: > 100 µM
SF-539
  GI50: > 100 µM (inactive)
SNB-19
  GI50: > 100 µM (inactive)
COLO 205
  GI50: > 100 µM (inactive)
HT-29
  GI50: > 100 µM (inactive)
SF-268
  GI50: > 100 µM (inactive)
CAKI-1
  GI50: > 100 µM (inactive)
MDA-N
  GI50: > 100 µM (inactive)
SK-OV-3
  GI50: > 100 µM (inactive)
SF-295
  GI50: > 100 µM (inactive)
DU-145
  GI50: > 100 µM (inactive)
MDA-MB-231
  GI50: > 100 µM (inactive)
786-0
  GI50: > 100 µM (inactive)
HCT-116
  GI50: > 100 µM (inactive)
UACC-257
  GI50: > 100 µM (inactive)
HOP-62
  GI50: > 100 µM (inactive)
IGROV-1
  GI50: > 100 µM (inactive)
MDA-MB-435
  GI50: > 100 µM (inactive)
SW-620
  GI50: > 100 µM (inactive)
A549
  GI50: > 100 µM (inactive)
SK-MEL-5
  GI50: > 100 µM (inactive)
ACHN
  GI50: > 100 µM (inactive)
LOX IMVI
  GI50: > 100 µM (inactive)
NCI-H226
  GI50: > 100 µM (inactive)
TK-10
  GI50: > 100 µM (inactive)
HL-60
  GI50: > 100 µM (inactive)
OVCAR-4
  GI50: > 100 µM (inactive)
NCI-H23
  GI50: > 100 µM (inactive)
BT-549
  GI50: > 100 µM (inactive)
SN12C
  GI50: > 100 µM (inactive)
SR
  GI50: 39.4 µM (inactive)
Hs-578T
  GI50: > 100 µM (inactive)
RXF 393
  GI50: > 100 µM (inactive)
SK-MEL-28
  GI50: > 100 µM (inactive)
RPMI-8226
  GI50: > 100 µM (inactive)
SK-MEL-2
  GI50: > 100 µM (inactive)
OVCAR-3
  GI50: > 100 µM (inactive)
HOP-92
  GI50: > 100 µM (inactive)
OVCAR-5
  GI50: > 100 µM (inactive)
NCI/ADR-RES
  GI50: > 100 µM (inactive)
Malme-3M
  GI50: > 100 µM (inactive)
T47D
  GI50: > 100 µM (inactive)
UACC-62
  GI50: > 100 µM (inactive)
U-251
  GI50: > 100 µM (inactive)

## CC(C)(C)OC(=O)NCCC(N)=S
UO-31
  GI50: > 100 µM (inactive)
MOLT-4
  GI50: > 100 µM (inactive)
CCRF-CEM
  GI50: 57.5 µM (inactive)
A498
  GI50: > 100 µM (inactive)
KM12
  GI50: > 100 µM (inactive)
M14
  GI50: > 100 µM (inactive)
PC-3
  GI50: > 100 µM (inactive)
OVCAR-8
  GI50: > 100 µM (inactive)
NCI-H460
  GI50: > 100 µM (inactive)
EKVX
  GI50: > 100 µM (inactive)
K562
  GI50: > 100 µM (inactive)
HCT-15
  GI50: > 100 µM
SF-539
  GI50: > 100 µM (inactive)
SNB-19
  GI50: > 100 µM (inactive)
COLO 205
  GI50: > 100 µM (inactive)
HT-29
  GI50: > 100 µM (inactive)
SF-268
  GI50: > 100 µM (inactive)
MDA-N
  GI50: > 100 µM (inactive)
SK-OV-3
  GI50: > 100 µM (inactive)
SF-295
  GI50: > 100 µM (inactive)
DU-145
  GI50: > 100 µM (inactive)
786-0
  GI50: > 100 µM (inactive)
SNB-75
  GI50: > 100 µM (inactive)
HCT-116
  GI50: > 100 µM (inactive)
UACC-257
  GI50: > 100 µM (inactive)
HOP-62
  GI50: > 100 µM (inactive)
IGROV-1
  GI50: > 100 µM (inactive)
MDA-MB-435
  GI50: > 100 µM (inactive)
SW-620
  GI50: > 100 µM (inactive)
A549
  GI50: > 100 µM (inactive)
SK-MEL-5
  GI50: > 100 µM (inactive)
ACHN
  GI50: > 100 µM (inactive)
NCI-H226
  GI50: > 100 µM (inactive)
TK-10
  GI50: > 100 µM (inactive)
HL-60
  GI50: > 100 µM (inactive)
NCI-H23
  GI50: > 100 µM (inactive)
BT-549
  GI50: > 100 µM (inactive)
SN12C
  GI50: > 100 µM (inactive)
SR
  GI50: > 100 µM (inactive)
Hs-578T
  GI50: > 100 µM (inactive)
RXF 393
  GI50: > 100 µM (inactive)
SK-MEL-28
  GI50: > 100 µM (inactive)
RPMI-8226
  GI50: > 100 µM (inactive)
OVCAR-3
  GI50: > 100 µM (inactive)
HOP-92
  GI50: > 100 µM (inactive)
OVCAR-5
  GI50: > 100 µM (inactive)
NCI/ADR-RES
  GI50: > 100 µM (inactive)
Malme-3M
  GI50: > 100 µM (inactive)
T47D
  GI50: > 100 µM (inactive)
UACC-62
  GI50: > 100 µM (inactive)
MCF7
  GI50: > 100 µM (inactive)
U-251
  GI50: > 100 µM (inactive)

## O=C1N/C(=N/N=C/C(O)C(O)C(O)CO)N/C1=C\c1ccco1 (stereo not drawn)
MOLT-4
  GI50: > 100 µM (inactive)
CCRF-CEM
  GI50: 93.1 µM (inactive)
A498
  GI50: > 100 µM (inactive)
KM12
  GI50: > 100 µM (inactive)
NCI-H522
  GI50: > 100 µM (inactive)
M14
  GI50: > 100 µM (inactive)
OVCAR-8
  GI50: > 100 µM (inactive)
NCI-H460
  GI50: > 100 µM (inactive)
EKVX
  GI50: > 100 µM (inactive)
K562
  GI50: > 100 µM (inactive)
HCT-15
  GI50: > 100 µM
SF-539
  GI50: > 100 µM (inactive)
SNB-19
  GI50: 0.0354 µM (active)
COLO 205
  GI50: > 100 µM (inactive)
HT-29
  GI50: > 100 µM (inactive)
SF-268
  GI50: > 100 µM (inactive)
CAKI-1
  GI50: > 100 µM (inactive)
MDA-N
  GI50: > 100 µM (inactive)
SK-OV-3
  GI50: > 100 µM (inactive)
SF-295
  GI50: > 100 µM (inactive)
DU-145
  GI50: > 100 µM (inactive)
MDA-MB-231
  GI50: > 100 µM (inactive)
HCC 2998
  GI50: > 100 µM (inactive)
786-0
  GI50: > 100 µM (inactive)
SNB-75
  GI50: > 100 µM (inactive)
HCT-116
  GI50: > 100 µM (inactive)
UACC-257
  GI50: > 100 µM (inactive)
HOP-62
  GI50: > 100 µM (inactive)
IGROV-1
  GI50: > 100 µM (inactive)
MDA-MB-435
  GI50: > 100 µM (inactive)
SW-620
  GI50: > 100 µM (inactive)
A549
  GI50: 64.6 µM (inactive)
SK-MEL-5
  GI50: > 100 µM (inactive)
ACHN
  GI50: > 100 µM (inactive)
LOX IMVI
  GI50: > 100 µM (inactive)
NCI-H226
  GI50: > 100 µM (inactive)
TK-10
  GI50: > 100 µM (inactive)
HL-60
  GI50: > 100 µM (inactive)
OVCAR-4
  GI50: > 100 µM (inactive)
NCI-H23
  GI50: > 100 µM (inactive)
BT-549
  GI50: > 100 µM (inactive)
SN12C
  GI50: > 100 µM (inactive)
Hs-578T
  GI50: > 100 µM (inactive)
RXF 393
  GI50: > 100 µM (inactive)
SK-MEL-28
  GI50: > 100 µM (inactive)
RPMI-8226
  GI50: > 100 µM (inactive)
OVCAR-3
  GI50: > 100 µM (inactive)
HOP-92
  GI50: > 100 µM (inactive)
OVCAR-5
  GI50: > 100 µM (inactive)
NCI/ADR-RES
  GI50: > 100 µM (inactive)
Malme-3M
  GI50: > 100 µM (inactive)
T47D
  GI50: > 100 µM (inactive)
UACC-62
  GI50: > 100 µM (inactive)
MCF7
  GI50: > 100 µM (inactive)
U-251
  GI50: > 100 µM (inactive)
